Assays:
[1] = Particle size distribution by laser light diffraction (LLD); format: physicochemical
Text: Values are given in micrometer, measurements done by laser light diffraction (LLD).

[2] = Behaviour of co-crystal in aqueous media; format: physicochemical

COc1ncc(-c2nc3c(n2C(C)C)[C@H](c2ccc(Cl)cc2)N(c2cc(Cl)cn(C)c2=O)C3=O)c(OC)n1 [HDM201-BBA, (6S)-5-(5-Chloro-1-methyl-2-oxo-1,2-dihydropyridin-3-yl)-6-(4-chlorophenyl)-2-(2,4-dimethoxypyrimidin-5-yl)-1-(propan-2-yl)-5,6-dihydropyrrolo[3,4-d]imidazol-4(1H)-one]
particle size range X90(LLD) found suitable for direct encapsulation [1]: 10-200 micrometer | stability of co-crystal in aqueous media [2]: can disproportionate into the free form in aqueous media
